Data published in patent US20240325394A1, “SALT AND CRYSTAL FORM OF NITROGEN-CONTAINING HETEROCYCLIC DERIVATIVE, PREPARATION METHOD THEREFOR AND APPLICATION THEREOF” (SHANGHAI HANSOH BIOMEDICAL CO., LTD., priority 2020, published 2024).
Structures can show the parent of a compound that is named as a salt.

What was measured:
[1] = Solid stability of crystal form, XRPD after stress conditions; assay type: physicochemical
[2] = Solid stability (10 days), impurity increase by HPLC; assay type: physicochemical
[3] = Thermodynamic solubility in different media (FaSSGF, FaSSIF, FeSSIF, water) at 37° C.; assay type: physicochemical; details: 24 hours
human KRAS G12C protein = biological target: T1, human KRAS G12C protein (Homo sapiens, UniProt P01116, G12C); assay: Thermal shift: melting temperature of KRAS G12C protein; assay type: binding; details: KRAS G12C protein 5.37 μM with compound 10 μM, 1 hour
T1 construct: purchased Beijing SinoBiological Co., Ltd. 12259-H07E2
Description: In this experiment, the thermal shift method was used to test the degree of change in the melting temperature (Tm) of the KRAS G12C protein before and after the binding of the compound, in order to characterize the ability of the compound to improve the stability of the KRAS G12C protein.
The specific experiment operation was as follows: • A solution containing […] (pH 7.5), 1 mM DTT, 5× SYPRO Orange and 150 mM NaCl was prepared as the experimental buffer, and a final concentration of 5.37 μM human KRAS G12C protein was added thereto. The reaction mixture was divided into 8 rows of PCR tubes, each 19.5 μL, and 0.5 μL of the test compound or DMSO were added respectively, so that the total reaction system was 20 μL, the final concentration of the compound was 10 μM, and 2.5% DMSO was set as the solvent control. After incubating at room temperature in the dark for 1 hour, the PCR tube was put into the PCR instrument, QuantStudio Software v1.3 was opened, and the melting temperature of KRAS G12C protein in different treatment groups was detected by melt curve function (heating from 25° C. to 95° C., 0.03° C./s).
The experimental data file of PCR instrument was imported into thermal shift software, and the melting temperature (Tm) of each treatment group was obtained, and the change value of melting temperature (ATm) was obtained by subtracting the Tm of DMSO solvent control group.

[4] = Plasma stability, dog plasma; assay type: in vitro ADME; details: dog plasma, 37° C.
Description: (§1) Animal or human whole blood was collected, then the blood was put into a test tube containing anticoagulant, centrifuged at 3500 rpm for 10 min, and the upper layer of pale yellow plasma was collected. • 2) 10 μM of tested compound (m/M/V=C)
(§2) The compound was weighed, the stock solution was prepared with DMSO and the working solution was prepared with 100 mM phosphate buffer. • 3) 10 μM of positive control • (1) Propantheline (Propantheline Mr=449.4 Da)
(§3) • 1) 285 μL of plasma and 15 μL of 10 μM compound (tested compound) were added in turn in a 96-well plate, and incubated at 37° C. • 2) 40 μL was taken out at 0, 15, 30, 60, 90, 120 min, respectively, and 160 μL of acetonitrile termination solution containing internal standard was added. • 3) After centrifugation (3500 rpm, 10 min), 50 μL of supernatant was taken out, and then diluted with 50 μL DDH2O and injected to LC-MS/MS.
(§4) • instrument: Shimadzu LC-20 AD • chromatographic column: phenomenex Gemiu® C18 (50*4.6 mm, 5 μM particle size); • mobile phase: A: acetonitrile, B: 0.1% formic acid solution 0-8 min: 5% A→95% A, 2.0-2.1 min: 90% A→5% A; flow rate: 0.8 mL/min; running time: 5.0 min; injection volume: 5 μL.
(§5) • instrument: API4000 Liquid Chromatography-Mass Spectrometry, AB, USA; • the ion source was electrospray ionization source (ESI); • the temperature of dry gas (N2) was 500° C.; • electrospray voltage was 5500V; • the detection method was positive ion detection; • the scanning mode was selective response monitoring (MRM); • the scanning time was 0.1 s.

[5] = Plasma stability, rat plasma; assay type: in vitro ADME; details: rat plasma, 37° C.
Description: as §1, §2, §3, §4, §5

[6] = Plasma stability, human plasma; assay type: in vitro ADME; details: human
Description: as §1, §2, §3, §4, §5

[7] = Plasma stability, mouse plasma; assay type: in vitro ADME; details: mouse
Description: as §1, §2, §3, §4, §5

C=CC(=O)N1C[C@H](C)N(c2nc(=O)n(-c3c(SC)ccnc3C(C)C)c3nc(-c4c(N)ccc(Cl)c4F)c(Cl)cc23)C[C@H]1C [Crystal form I of hydroxyethyl sulfonate, P-4-((2S,5R)-4-acryloyl-2,5-dimethylpiperazin-1-yl)-7-(6-amino-3-chloro-2-fluorophenyl)-6-chloro-1-(2-isopropyl-4-(methylthio)pyridin-3-yl)pyrido[2,3-d]pyrimidin-2(1H)-one]
Crystal form of hydroxyethyl sulfonate (XRPD) ([1]; High humidity (25° C., 75%, 10 days)): Crystal form I | Crystal form of hydroxyethyl sulfonate (XRPD) ([1]; High humidity (25° C., 90%, 10 days)): Crystal form I | Crystal form of hydroxyethyl sulfonate (XRPD) ([1]; High temperature (40° C., 30 days)): Crystal form I | Crystal form of hydroxyethyl sulfonate (XRPD) ([1]; High temperature (60° C., 30 days)): Crystal form I | Crystal form of hydroxyethyl sulfonate (XRPD) ([1]; Initial crystal form): Crystal form I | Crystal form of hydroxyethyl sulfonate (XRPD) ([1]; Light (≥1.2 × 10^6 lux-h, 10 days)): Crystal form I | Crystal form of hydroxyethyl sulfonate (XRPD) ([1]; Micropowder): Crystal form I | Solid stability (in words) ([1]; light, high humidity, high temperature, and micropowder conditions): relatively stable | Stability of solid (10 days) (impurity increase %) ([2]; 50° C. & 75% RH): 0.30% | Stability of solid (10 days) (impurity increase %) ([2]; 60° C.): 0.26% | Stability of solid (10 days) (impurity increase %) ([2]; 92.5% RH): 0.01% | Stability of solid (10 days) (impurity increase %) ([2]; Light (5000±500 lux)): 0.27% | Solubility ([3]; FaSSGF): 314.6 µg/mL | Solubility ([3]; FaSSIF): 158.8 µg/mL | Solubility ([3]; FeSSIF): 347.3 µg/mL | Solubility ([3]; H2O): 7.4 µg/mL

C=CC(=O)N1CCN(c2nc(=O)n(-c3c(SC)ccnc3C(C)C)c3nc(-c4c(O)cccc4F)c(F)cc23)[C@@H](C)C1 [Embodiment 1, 4-((S)-4-Acryloyl-2-methylpiperazin-1-yl)-6-fluoro-7-(2-fluoro-6-hydroxyphenyl)-1-(2-isopropyl-4-(methylthio)pyridin-3-yl)pyrido[2,3-d]pyrimidin-2(1H)-one]
Tm (human KRAS G12C protein): 60.2 °C

C=CC(=O)N1C[C@H](C)N(c2nc(=O)n(-c3c(SC)ccnc3C(C)C)c3nc(-c4c(O)cccc4F)c(F)cc23)C[C@H]1C [Embodiment 2, 4-((2S,5R)-4-acryloyl-2,5-dimethylpiperazin-1-yl)-6-fluoro-7-(2-fluoro-6-hydroxyphenyl)-1-(2-isopropyl-4-(methylthio)pyridin-3-yl)pyrido[2,3-d]pyrimidin-2(1H)-one]
Tm (human KRAS G12C protein): 57.2 °C

C=CC(=O)N1CCN(c2nc(=O)n(-c3c(SC)ccnc3C(C)C)c3nc(-c4c(N)cccc4F)c(F)cc23)[C@@H](C)C1 [Embodiment 5, 4-((S)-4-acryloyl-2-methylpiperazin-1-yl)-7-(2-amino-6-fluorophenyl)-6-fluoro-1-(2-isopropyl-4-(methylthio)pyridin-3-yl)pyrido[2,3-d]pyrimidin-2(1H)-one]
Tm (human KRAS G12C protein): 64.4 °C

C=CC(=O)N1CCN(c2nc(=O)n(-c3c(SC)ccnc3C(C)C)c3nc(-c4c(N)ccc(Cl)c4F)c(Cl)cc23)[C@@H](C)C1 [Embodiment 9, 4-((S)-4-acryloyl-2-methylpiperazin-1-yl)-7-(6-amino-3-chloro-2-fluorophenyl)-6-chloro-1-(2-isopropyl-4-(methylthio)pyridin-3-yl)pyrido[2,3-d]pyrimidin-2(1H)-one]
Tm (human KRAS G12C protein): 60.2 °C

C=CC(=O)N1C[C@H](C)N(c2nc(=O)n(-c3c(SC)ccnc3C(C)C)c3nc(-c4c(N)ccc(Cl)c4F)c(Cl)cc23)C[C@H]1C [Embodiment 13, 4-((2S,5R)-4-acryloyl-2,5-dimethylpiperazin-1-yl)-7-(6-amino-3-chloro-2-fluorophenyl)-6-chloro-1-(2-isopropyl-4-(methylthio)pyridin-3-yl)pyrido[2,3-d]pyrimidin-2(1H)-one]
Tm (human KRAS G12C protein): 58.0 °C

CC[C@H](C)C(=O)O[C@H]1C[C@@H](C)C=C2C=C[C@H](C)[C@H](CC[C@@H]3C[C@@H](O)CC(=O)O3)[C@H]21 [Lovastatin, reference compound]
t1/2 [4]: 80.22 min | Residual rate (%) 0 min ([4]; 0 min): 100.00% | Residual rate (%) 15 min ([4]; 15 min): 95.25% | Residual rate (%) 30 min ([4]; 30 min): 95.45% | Residual rate (%) 60 min ([4]; 60 min): 75.66% | Residual rate (%) 120 min ([4]; 120 min): 36.25% | t1/2 [5]: 6.69 min | Residual rate (%) 0 min ([5]; 0 min): 100.00% | Residual rate (%) 15 min ([5]; 15 min): 21.15% | Residual rate (%) 30 min ([5]; 30 min): 1.77% | Residual rate (%) 60 min ([5]; 60 min): 0.36% | Residual rate (%) 120 min ([5]; 120 min): 0.30%

CC(C)[N+](C)(CCOC(=O)C1c2ccccc2Oc2ccccc21)C(C)C [Propantheline, reference compound]
Residual rate (%) 0 min ([6]; 0 min, 0.5 μM): 100.00% | Residual rate (%) 15 min ([6]; 15 min, 0.5 μM): 79.98% | Residual rate (%) 30 min ([6]; 30 min, 0.5 μM): 50.52% | Residual rate (%) 60 min ([6]; 60 min, 0.5 μM): 14.65% | Residual rate (%) 120 min ([6]; 120 min, 0.5 μM): 0.72% | half-life at 0.5 μM ([6]; plasma): 21 min | Residual rate (%) 0 min ([7]; 0 min, 0.5 μM): 100.00% | Residual rate (%) 15 min ([7]; 15 min, 0.5 μM): 79.79% | Residual rate (%) 30 min ([7]; 30 min, 0.5 μM): 48.66% | Residual rate (%) 60 min ([7]; 60 min, 0.5 μM): 23.39% | Residual rate (%) 120 min ([7]; 120 min, 0.5 μM): 6.66% | half-life at 0.5 μM ([7]; plasma): 27.7 min

C=CC(=O)N1C[C@H](C)N(c2nc(=O)n(-c3c(SC)ccnc3C(C)C)c3nc(-c4c(N)ccc(Cl)c4F)c(Cl)cc23)C[C@H]1C [crystal form II of sulfate, P-4-((2S,5R)-4-acryloyl-2,5-dimethylpiperazin-1-yl)-7-(6-amino-3-chloro-2-fluorophenyl)-6-chloro-1-(2-isopropyl-4-(methylthio)pyridin-3-yl)pyrido[2,3-d]pyrimidin-2(1H)-one]
Stability of solid (10 days) (impurity increase %) ([2]; 50° C. & 75% RH, HPLC peak area normalization): 0.15% | Stability of solid (10 days) (impurity increase %) ([2]; 60° C., HPLC peak area normalization): 0.91% | Stability of solid (10 days) (impurity increase %) ([2]; 92.5% RH, HPLC peak area normalization): 0.56% | Stability of solid (10 days) (impurity increase %) ([2]; Light (5000±500 lux), HPLC peak area normalization): 1.12% | Solid stability (in words) ([2]; light, high humidity, high temperature and high humidity conditions): relatively stable | Solubility ([3]; FaSSGF): 386.5 µg/mL | Solubility ([3]; FaSSIF): 150.3 µg/mL | Solubility ([3]; FeSSIF): 383.5 µg/mL | Solubility ([3]; H2O): 13.2 µg/mL
